Experimental data taken from the NIST ThermoML archive (doi:10.1021/je8000975).

Legend:
[1] = xn = mol fraction of the nth substance listed; details: 101 kPa, Liquid
[2] = Liquid; for speed of sound: Sing-around technique in a fixed-path interferometer

CCOCCO [2-ethoxyethan-1-ol] + COCCO
[1]
Details	mass density [kg/m3]
293.15 K, x2 = 0.1511	933.958
293.15 K, x2 = 0.2029	935.531
293.15 K, x2 = 0.3043	938.709
293.15 K, x2 = 0.3503	940.193
293.15 K, x2 = 0.5024	945.313
293.15 K, x2 = 0.5514	947.031
293.15 K, x2 = 0.6992	952.448
293.15 K, x2 = 0.7482	954.326
293.15 K, x2 = 0.798	956.272
293.15 K, x2 = 0.7992	956.321
293.15 K, x2 = 0.8504	958.373
293.15 K, x2 = 0.8997	960.393
293.15 K, x2 = 0.9488	962.456
298.15 K, x2 = 0.0536	926.563
298.15 K, x2 = 0.1039	928.032
298.15 K, x2 = 0.151	929.431
298.15 K, x2 = 0.1517	929.455
298.15 K, x2 = 0.3523	935.724
298.15 K, x2 = 0.3757	936.488
298.15 K, x2 = 0.4166	937.846
298.15 K, x2 = 0.4509	939.002
298.15 K, x2 = 0.5507	942.46
298.15 K, x2 = 0.5981	944.155
298.15 K, x2 = 0.7494	949.818
298.15 K, x2 = 0.7987	951.747
298.15 K, x2 = 0.8423	953.488
298.15 K, x2 = 0.8475	953.698
298.15 K, x2 = 0.9002	955.855
298.15 K, x2 = 0.9483	957.869
303.15 K, x2 = 0.1537	924.945
303.15 K, x2 = 0.1543	924.961
303.15 K, x2 = 0.2017	926.398
303.15 K, x2 = 0.2495	927.868
303.15 K, x2 = 0.3013	929.498
303.15 K, x2 = 0.402	932.768
303.15 K, x2 = 0.4505	934.39
303.15 K, x2 = 0.4985	936.037
303.15 K, x2 = 0.5505	937.856
303.15 K, x2 = 0.5979	939.553
303.15 K, x2 = 0.6504	941.473
303.15 K, x2 = 0.6979	943.248
303.15 K, x2 = 0.7488	945.193
303.15 K, x2 = 0.7998	947.188
303.15 K, x2 = 0.9001	951.244

CCCCOCCO [2-butoxyethan-1-ol] + COCCO
[1]
Details	mass density [kg/m3]
293.15 K, x2 = 0.0524	902.021
293.15 K, x2 = 0.1023	903.942
293.15 K, x2 = 0.1513	905.929
293.15 K, x2 = 0.2009	908.026
293.15 K, x2 = 0.2491	910.172
293.15 K, x2 = 0.3006	912.586
293.15 K, x2 = 0.3411	914.561
293.15 K, x2 = 0.3986	917.531
293.15 K, x2 = 0.4484	920.249
293.15 K, x2 = 0.4994	923.189
293.15 K, x2 = 0.5492	926.262
293.15 K, x2 = 0.5987	929.459
293.15 K, x2 = 0.6489	932.911
293.15 K, x2 = 0.7291	938.888
293.15 K, x2 = 0.7487	940.45
293.15 K, x2 = 0.7996	944.683
293.15 K, x2 = 0.8491	949.097
293.15 K, x2 = 0.8992	953.883
293.15 K, x2 = 0.9495	959.058
298.15 K, x2 = 0.0522	897.844
298.15 K, x2 = 0.1029	899.781
298.15 K, x2 = 0.15	901.679
298.15 K, x2 = 0.2019	903.86
298.15 K, x2 = 0.2489	905.939
298.15 K, x2 = 0.2999	908.306
298.15 K, x2 = 0.3514	910.818
298.15 K, x2 = 0.3994	913.289
298.15 K, x2 = 0.449	915.99
298.15 K, x2 = 0.4755	917.493
298.15 K, x2 = 0.4987	918.836
298.15 K, x2 = 0.5985	925.072
298.15 K, x2 = 0.6476	928.432
298.15 K, x2 = 0.6975	932.045
298.15 K, x2 = 0.7481	935.968
298.15 K, x2 = 0.7988	940.157
298.15 K, x2 = 0.8476	944.484
298.15 K, x2 = 0.8993	949.386
298.15 K, x2 = 0.9478	954.336
303.15 K, x2 = 0.0483	893.466
303.15 K, x2 = 0.1002	895.434
303.15 K, x2 = 0.1519	897.493
303.15 K, x2 = 0.1997	899.493
303.15 K, x2 = 0.2393	901.221
303.15 K, x2 = 0.2476	901.59
303.15 K, x2 = 0.3501	906.436
303.15 K, x2 = 0.3985	908.906
303.15 K, x2 = 0.4499	911.682
303.15 K, x2 = 0.4966	914.34
303.15 K, x2 = 0.5031	914.737
303.15 K, x2 = 0.6119	921.563
303.15 K, x2 = 0.6471	923.963
303.15 K, x2 = 0.7275	929.874
303.15 K, x2 = 0.7491	931.575
303.15 K, x2 = 0.7969	935.498
303.15 K, x2 = 0.8463	939.82
303.15 K, x2 = 0.8986	944.764
303.15 K, x2 = 0.9475	949.713

CCCOCCO [2-propoxyethanol]
[2]
Details	mass density [kg/m3]	speed of sound [m/s]
293.15 K	911.515	1316.6
298.15 K	907.151	1298.6
303.15 K	902.736	1281.1

COCCO [2-methoxyethan-1-ol]
[2]
Details	mass density [kg/m3]	speed of sound [m/s]
293.15 K	964.656	1359.2
298.15 K	960.088	1341.6
303.15 K	955.471	1324.3
